Laboratory results published in publication PMC9736855, “Discovery of 3-Amino-1H-pyrazole-Based Kinase Inhibitors to Illuminate the Understudied PCTAIRE Family” (International Journal of Molecular Sciences, 2022).

Key:
CDK2 = target: T1, CDK2 (Homo sapiens, UniProt P24941); assay: DSF; assay type: binding; settings: 10 μM compound
T1 construct: purchased in-house DSF panel (SGC Frankfurt)
Description: (§1) To investigate the selectivity profile of the different series, a differential scanning fluorimetry (DSF) assay was used. This assay offers a rapid and sensitive screening method that determines the denaturation temperature of a protein in absence and presence of a compound. This assay format measures the fluorescence of a dye, which depends on the folding state of the protein. The difference between the melting temperature (ΔTm) in the absence and presence of the compound represents the binding strength to the protein.
(§2) Measurements were performed in duplicates.

CDK16 = target: T2, CDK16 (Homo sapiens, UniProt Q00536); assay: DSF; assay type: binding; settings: 10 μM compound
T2 construct: purchased in-house DSF panel (SGC Frankfurt)
T2 sequence (Q00536 163-478): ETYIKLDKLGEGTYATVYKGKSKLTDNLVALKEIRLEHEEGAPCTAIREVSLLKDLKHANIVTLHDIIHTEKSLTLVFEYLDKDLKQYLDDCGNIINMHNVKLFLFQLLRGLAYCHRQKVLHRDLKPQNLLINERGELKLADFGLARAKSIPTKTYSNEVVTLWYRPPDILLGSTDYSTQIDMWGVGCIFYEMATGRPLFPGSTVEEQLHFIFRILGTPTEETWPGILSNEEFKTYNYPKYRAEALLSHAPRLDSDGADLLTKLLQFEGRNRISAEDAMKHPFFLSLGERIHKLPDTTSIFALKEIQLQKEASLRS
Description: as §1, §2

GSK3B = GSK3B (Homo sapiens, UniProt P49841); assay: DSF; assay type: binding; design: purchased in-house DSF panel (SGC Frankfurt); settings: 10 μM compound
GSK3B, sequence (P49841 35-386): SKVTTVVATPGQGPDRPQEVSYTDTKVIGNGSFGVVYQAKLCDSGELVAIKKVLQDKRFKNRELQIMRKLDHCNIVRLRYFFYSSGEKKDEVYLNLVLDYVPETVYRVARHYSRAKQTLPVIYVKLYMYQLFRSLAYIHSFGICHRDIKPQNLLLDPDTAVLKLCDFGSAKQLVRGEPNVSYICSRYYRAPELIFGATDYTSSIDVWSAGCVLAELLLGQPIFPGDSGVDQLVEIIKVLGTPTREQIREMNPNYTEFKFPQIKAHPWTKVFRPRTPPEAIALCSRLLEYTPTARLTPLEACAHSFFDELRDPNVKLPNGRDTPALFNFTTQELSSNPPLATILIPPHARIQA
Description: as §1, §2

CDK16/Cyclin Y = target: T3, CDK16/Cyclin Y (Homo sapiens, UniProt Q00536); assay: NanoBRET; assay type: cell-based; settings: Figure 7, 11-point dose-response in duplicates; read-out: NanoBRET EC50 ± SEM against CDK16
T3 construct: Full-length kinases were obtained as plasmids cloned in frame with a terminal NanoLuc-fusion; CS1810C178 (CCNY); host or cells: HEK293T
T3 sequence (Q00536 whole entry, the tested form may be a part): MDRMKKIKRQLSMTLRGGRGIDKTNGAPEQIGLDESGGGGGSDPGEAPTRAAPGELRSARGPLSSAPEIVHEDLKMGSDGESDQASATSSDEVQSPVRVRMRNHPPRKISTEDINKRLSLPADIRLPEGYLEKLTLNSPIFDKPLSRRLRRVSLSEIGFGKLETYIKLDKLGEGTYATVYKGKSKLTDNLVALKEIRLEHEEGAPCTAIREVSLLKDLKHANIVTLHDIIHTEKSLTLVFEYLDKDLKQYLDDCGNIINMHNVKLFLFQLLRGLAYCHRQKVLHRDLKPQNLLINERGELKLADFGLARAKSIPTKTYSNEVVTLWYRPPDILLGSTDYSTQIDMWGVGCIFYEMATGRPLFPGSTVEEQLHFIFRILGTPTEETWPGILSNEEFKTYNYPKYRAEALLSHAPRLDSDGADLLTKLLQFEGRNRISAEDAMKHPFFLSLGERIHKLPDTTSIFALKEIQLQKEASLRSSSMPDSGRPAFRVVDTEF
T3 sequence (Q8ND76 2-341 partner limits assumed): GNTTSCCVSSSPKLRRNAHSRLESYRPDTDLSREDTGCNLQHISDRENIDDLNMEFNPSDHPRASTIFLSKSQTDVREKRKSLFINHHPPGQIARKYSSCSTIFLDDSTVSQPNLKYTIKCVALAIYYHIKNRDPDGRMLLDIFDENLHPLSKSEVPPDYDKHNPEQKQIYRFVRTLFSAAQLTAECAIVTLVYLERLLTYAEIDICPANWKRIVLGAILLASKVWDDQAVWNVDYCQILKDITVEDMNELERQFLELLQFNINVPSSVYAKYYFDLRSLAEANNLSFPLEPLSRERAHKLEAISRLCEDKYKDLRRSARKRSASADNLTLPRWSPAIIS
Experimental: Next, to specifically quantify the outcome of the cellular activity of the compounds, a NanoBRET cellular target engagement assay was performed. The determination of the cellular potency on CDK16 correlated well with the corresponding DSF assay data (Figure S2). […] As mentioned before, the exchange from a methyl ester to an iso-propyl or tert-butyl ester led to a higher stabilization of the kinase in the DSF assay, which correlated with an increase in cellular potency as determined in the NanoBRET assay. […] The number of potential off-targets was low with 1 and 2 kinases with ΔTm >5 °C (Figure 4), highlighting these inhibitors for more comprehensive selectivity studied within the CDK and particular the TAIRE subfamily.
The assay was performed as described previously. In brief: Full-length kinases were obtained as plasmids cloned in frame with a terminal NanoLuc-fusion (Promega, Madison, WI, USA), as specified in table (Table S6). Plasmids were transfected into HEK293T cells using FuGENE HD (Promega, E2312) and proteins were allowed to express for 20h. Serially diluted inhibitor and NanoBRET Kinase Tracer (Promega) at a concentration determined previously as the KD,app (Table S5) were pipetted into white 384-well plates (Greiner 781207) using an Echo acoustic dispenser (Labcyte, San Jose, CA, USA). The corresponding protein-transfected cells were added and reseeded at a density of 2.5 × 10^5 cells/mL after trypsinization and resuspending in Opti-MEM without phenol red (Life Technologies, Carlsbad, CA, USA). The system was allowed to equilibrate for 2 h at 37 °C/5% CO2 prior to BRET measurements. To measure BRET, NanoBRET NanoGlo Substrate + Extracellular NanoLuc Inhibitor (Promega, N2540) was added as per the manufacturer’s protocol, and filtered luminescence was measured on a PHERAstar plate reader (BMG Labtech, Ortenberg, Germany) equipped with a luminescence filter pair (450 nm BP filter (donor) and 610 nm LP filter (acceptor)). Competitive displacement data were then graphed using GraphPad Prism 9 software using a normalized 3-parameter curve fit with the following equation: Y = 100/(1 + 10^(X–LogEC50)).

SMILES	ΔTm at 10 µM (CDK2)	ΔTm at 10 µM (CDK16)	ΔTm at 10 µM (GSK3B)	EC50 (CDK16/Cyclin Y)
COC(=O)c1cc(Nc2ccnc(NCc3ccc(N)cc3)n2)n[nH]1 [compound 25, methyl 3-((2-((4-aminobenzyl)amino)pyrimidin-4-yl)amino)-1H-pyrazole-5-carboxylate]	5.1 °C	5.6 °C	10.3 ± 0.1 °C	400 ± 30.6 nM
Cc1cnc(NCCCCCNC(=O)OC(C)(C)C)nc1Nc1cc(C2CC2)n[nH]1 [12c, tert-butyl (5-((4-((3-cyclopropyl-1H-pyrazol-5-yl)amino)-5-methylpyrimidin-2-yl)amino)-pentyl)carbamate]	7.2 ± 0.2 °C	6.5 ± 0.1 °C	6.1 ± 0.1 °C	176 ± 3 nM
CC(C)(C)OC(=O)NCCCCCNc1nccc(Nc2cc(C3CC3)[nH]n2)n1 [11c, tert-butyl (5-((4-((3-cyclopropyl-1H-pyrazol-5-yl)amino)pyrimidin-2-yl)amino)pentyl) carbamate]	10.4 ± 0.3 °C	9.4 °C	7.1 ± 0.2 °C	33 ± 0.1 nM
CC(C)(C)OC(=O)NCCc1ccc(Nc2ncc(Cl)c(Nc3cc(C4CC4)n[nH]3)n2)cc1 [13a, tert-butyl 4-((5-chloro-4-((3-cyclopropyl-1H-pyrazol-5-yl)amino)pyrimidin-2-yl)amino)phenethylcarbamate]	5.9 °C	3.2 °C	4.6 °C	354 ± 60.5 nM
Cc1cc(Nc2ccnc(NCCCCCNC(=O)OC(C)(C)C)n2)[nH]n1 [38b, tert-butyl (5-((4-((3-methyl-1H-pyrazol-5-yl)amino)pyrimidin-2-yl)amino)pentyl)-carbamate]	4.7 ± 0.1 °C	5.8 ± 0.2 °C	4.6 ± 0.1 °C	253 ± 19.2 nM
CC(=O)NCCCCCCNc1nccc(Nc2cc(C3CC3)n[nH]2)n1 [compound 15, N-(6-((4-((3-cyclopropyl-1H-pyrazol-5-yl)amino)pyrimidin-2-yl)amino)hexyl)acetamide]	11.3 °C	8.8 ± 0.1 °C	7.9 ± 0.1 °C	100 ± 7 nM
CC(C)(C)OC(=O)NCCc1cccc(Nc2nccc(Nc3cc(C4CC4)n[nH]3)n2)c1 [11b, tert-butyl 3-((4-((3-cyclopropyl-1H-pyrazol-5-yl)amino)pyrimidin-2-yl)amino)phenethyl-carbamate]	8.2 ± 0.1 °C	6.3 ± 0.3 °C	7.2 ± 0.2 °C	124 ± 10.4 nM
Cc1cc(Nc2ccnc(Nc3ccc(CCNC(=O)OC(C)(C)C)cc3)n2)[nH]n1 [38a, tert-butyl 4-((4-((3-methyl-1H-pyrazol-5-yl)amino)pyrimidin-2-yl)amino)phenethyl-carbamate]	10.7 ± 0.1 °C	5.7 ± 0.2 °C	10.4 ± 0.1 °C	388 ± 32 nM
CC(C)(C)OC(=O)NCCc1ccc(Nc2nccc(Nc3cc(C(C)(C)C)n[nH]3)n2)cc1 [40a, tert-butyl 4-((4-((3-(tert-butyl)-1H-pyrazol-5-yl)amino)pyrimidin-2-yl)amino)phenethyl-carbamate]	5.8 ± 0.1 °C	4.4 ± 0.1 °C	5.7 °C	1130 ± 20.5 nM
CC(C)(C)OC(=O)NCCCCCNc1nccc(Nc2cc(C(C)(C)C)n[nH]2)n1 [40b, tert-butyl (5-((4-((3-(tert-butyl)-1H-pyrazol-5-yl)amino)pyrimidin-2-yl)amino)pentyl)-carbamate]	4.3 ± 0.1 °C	5.1 ± 0.1 °C	4.9 ± 0.1 °C	504 ± 9.3 nM
CNC(=O)c1cc(Nc2ccnc(Nc3ccc(CC#N)cc3)n2)[nH]n1 [41c, 5-((2-((4-(cyanomethyl)phenyl)amino)pyrimidin-4-yl)amino)-N-methyl-1H-pyrazole-3-carboxamide]	2.7 ± 0.2 °C	1.4 ± 0.4 °C	9.3 ± 0.1 °C	5550 ± 636 nM
CC(C)c1cc(Nc2ccnc(Nc3ccc(CCNC(=O)OC(C)(C)C)cc3)n2)[nH]n1 [39a, tert-butyl 4-((4-((3-isopropyl-1H-pyrazol-5-yl)amino)pyrimidin-2-yl)amino)phenethyl-carbamate]	9.8 ± 1.3 °C	7.9 ± 0.4 °C	7 ± 0.1 °C	70 ± 4.9 nM
COC(=O)c1cc(Nc2ccnc(NCCCCCNC(=O)OC(C)(C)C)n2)[nH]n1 [21c, methyl 5-((2-((5-((tert-butoxycarbonyl)amino)pentyl)amino)pyrimidin-4-yl)amino)-1H-pyrazole-3-carboxylate]	5.6 °C	8.5 ± 0.2 °C	8.6 °C	107 nM
COC(=O)c1cc(Nc2nc(NCCOCCNC(=O)OC(C)(C)C)ncc2Cl)[nH]n1 [22d, methyl 5-((2-((2-(2-((tert-butoxycarbonyl)amino)ethoxy)ethyl)amino)-5-chloropyrimidin-4-yl)amino)-1H-pyrazole-3-carboxylate]	0.2 °C	0.2 ± 0.2 °C	2.1 ± 0.1 °C	25000 ± 4220 nM
COC(=O)c1cc(Nc2nc(Nc3ccc(CCNC(=O)OC(C)(C)C)cc3)nc3ccccc23)[nH]n1 [23a, methyl 5-((2-((4-(2-((tert-butoxycarbonyl)amino)ethyl)phenyl)amino)quinazolin-4-yl)amino)-1H-pyrazole-3-carboxylate]	-0.1 ± 0.1 °C	3.4 ± 0.6 °C	1 ± 0.1 °C	9360 ± 1020 nM
CC(C)(C)OC(=O)NCc1ccc(CNc2nccc(Nc3cc(C4CC4)n[nH]3)n2)cc1 [11f, tert-butyl 4-(((4-((3-cyclopropyl-1H-pyrazol-5-yl)amino)pyrimidin-2-yl)amino)methyl)-benzylcarbamate]	8.4 ± 0.1 °C	7.6 ± 0.2 °C	6.3 ± 0.1 °C	110 ± 9.7 nM
CNC(=O)c1cc(Nc2ccnc(Nc3ccc(CCNC(=O)OC(C)(C)C)cc3)n2)[nH]n1 [41a, tert-butyl 4-((4-((3-(methylcarbamoyl)-1H-pyrazol-5-yl)amino)pyrimidin-2-yl)amino)-phenethylcarbamate]	1.2 ± 0.2 °C	0.9 °C	2.9 °C	4160 ± 274 nM
COC(=O)c1cc(Nc2ccnc(Nc3ccc(CCNC(=O)OC(C)(C)C)cc3)n2)[nH]n1 [21a, methyl 5-((2-((4-(2-((tert-butoxycarbonyl)amino)ethyl)phenyl)amino)pyrimidin-4-yl)amino)-1H-pyrazole-3-carboxylate]	3.1 ± 0.2 °C	4.3 ± 0.4 °C	7.8 ± 0.2 °C	652 ± 15.6 nM
Cc1cnc(NCCCCCCNC(=O)OC(C)(C)C)nc1Nc1cc(C2CC2)n[nH]1 [12e, tert-butyl (6-((4-((3-cyclopropyl-1H-pyrazol-5-yl)amino)-5-methylpyrimidin-2-yl)amino)hexyl)carbamate]	8.1 ± 0.4 °C	6.3 °C	5.8 ± 0.2 °C	191 ± 5.9 nM
Cc1cnc(NCCOCCNC(=O)OC(C)(C)C)nc1Nc1cc(C2CC2)n[nH]1 [12d, tert-butyl (2-(2-((4-((3-cyclopropyl-1H-pyrazol-5-yl)amino)-5-methylpyrimidin-2-yl)amino)ethoxy)ethyl)carbamate]	5.3 °C	5.8 ± 0.1 °C	6.6 °C	619 ± 32 nM
COC(=O)c1cc(Nc2nc(NCCCCCNC(=O)OC(C)(C)C)nc3ccccc23)[nH]n1 [23c, methyl 5-((2-((5-((tert-butoxycarbonyl)amino)pentyl)amino)quinazolin-4-yl)amino)-1H-pyrazole-3-carboxylate]	1.3 ± 0.5 °C	3.4 ± 0.1 °C	4.2 °C	4600 ± 385 nM
